Results published in the NIST ThermoML archive (doi:10.1021/acs.jced.8b00643).

Legend:
[1] = Molar enthalpy of transition or fusion; conditions: Crystal; DSC
[2] = for vapor or sublimation pressure: Transpiration method

O=C1NCCCO1 [tetrahydro-1,3-oxazin-2-one]
Conditions	Molar enthalpy of transition or fusion [kcal/mol]
[1]	3.66

Conditions	mass density [kg/m3]
[2], 293 K, 101.33 kPa, Crystal, Pycnometric method	1490

[2]
Conditions	Triple point temperature [K]	vapor or sublimation pressure [kPa]
327.7 K, Crystal	–	0.00023
332.7 K, Crystal	–	0.00039
337.7 K, Crystal	–	0.00061
342.7 K, Crystal	–	0.001
345.7 K, Crystal	–	0.00134
348.6 K, Crystal	–	0.00167
352.6 K, Crystal	–	0.0024
358 K, Liquid	–	0.00409
361.3 K, Liquid	–	0.00517
365.3 K, Liquid	–	0.00677
368 K, Liquid	–	0.00807
370.2 K, Liquid	–	0.0095
372.8 K, Liquid	–	0.01116
377.4 K, Liquid	–	0.01498
380.3 K, Liquid	–	0.01771
382.2 K, Liquid	–	0.02005
385.1 K, Liquid	–	0.02395
Crystal, DSC	355.3	–
